# Data: US20150038418A1, “NATRIURETIC PEPTIDE COMPOSITIONS AND METHODS OF PREPARATION” (MEDTRONIC, INC., priority 2011, published 2015)
# System: Prostaglandin E2 (PGE2)
# Test: Serum Prostaglandin E2 after 6 weeks subcutaneous infusion of VD in Dahl/SS rats
# Format: in vivo, rat
# Details: 4% salt diet
# From the text: The pharmacodynamic effects of VD were investigated in a rat model. Forty male Dahl/SS rats were shipped to the animal facilities at PhysioGenix, Inc. (Milwaukee, Wis.). The rats were maintained on a low-salt diet and allowed to acclimate. After acclimation, animals had baseline parameters collected while on the low-salt diet. Animals were then randomly assigned to one of 4 groups (10 animals per group):
# 1. Vehicle Control; low-salt diet, n=10 2. Vehicle Control; 4% salt diet, n=10 3. Vessel dilator, 100 ng/kg/min infusion of VD, 4% salt diet, n=10 4. Vessel dilator, 300 ng/kg/min infusion of VD, 4% salt diet, n=10
# Lyophilized VD peptide (Bachem) was reconstituted in a Tris buffer having the same composition as the Tris buffer of Example 1. The vehicle control groups were infused with a citrate-mannitol-saline buffer (0.66 mg/mL citric acid, 6.43 mg/mL sodium citrate, 40 mg/mL mannitol, 9 mg/mL NaCl). The animals were on a Teklad 7034 (low-salt) diet or Dyets AIN-76A 4% salt diet, as indicated, throughout a 6 week course of the study and had free access to water. […]
# Alzet® minipumps (Durect, Corp.) were surgically implanted on Days 1, 15, and 29 of the study to maintain continuous vehicle or drug dispensing at the desired dose for a total period of 6 weeks. At the end of 6 weeks, the serum content of Prostaglandin E2 (PGE2) was measured.
substance,measurement,setting,value
"VD: Vessel Dilator, ANP prohormone a.a. 31-67, EVVPPQVLSEPNEEAGAALSPLPEVPPWTGEVSPAQR (SEQ ID No. 4) (listed as Homo sapiens)",PGE2 concentration in serum versus control groups,SQ infusion 100 ng/kg·min,similar
same,PGE2 concentration in serum versus control groups,"SQ infusion 300 ng/kg·min, p<0.05",significantly higher than for any of the other 3 groups
